Measured values as given in the supplement of paper PMC10307832.

Columns and labels:
Experiment in all cases: relative viability (nuclei count vs DMSO), 5 days (fraction); higher = more cells survive
[1] = test system: NCI-H2405
Outline: (§1)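 For relative viability, nuclei counts in treated wells were divided by those in vehicle wells. Lung cancer cell lines had been pin-tool dosed in 1536-well plates the day after seeding and cultured for 5 days, then fixed and stained in one step (final 0.05% Triton X-100, 1% formaldehyde, 1 ug/ml Hoechst) and imaged at 4×. Doses were one drug alone or a fixed anchor-drug dose plus five library-drug doses (not always all listed) in √10 steps, and values are duplicate-plate medians.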

[2] = test system: LXF-289
Outline: as §1

[3] = test system: NCI-H1650
Outline: as §1

[4] = test system: CAL-12T
Outline: as §1

[5] = test system: SK-LU-1
Outline: as §1

[6] = test system: NCI-H647
Outline: as §1

[7] = test system: NCI-H322M
Outline: as §1

[8] = test system: NCI-H2228
Outline: as §1

[9] = test system: NCI-H1437
Outline: as §1

[10] = test system: NCI-H1944
Outline: as §1

[11] = test system: NCI-H1792
Outline: as §1

[12] = test system: LCLC-103H
Outline: as §1

[13] = test system: BEN
Outline: as §1

[14] = test system: HCC-827
Outline: as §1

[15] = test system: LCLC-97TM1
Outline: as §1

[16] = test system: RERF-LC-KJ
Outline: as §1

[17] = test system: 201T
Outline: as §1

[18] = test system: NCI-H727
Outline: as §1

[19] = test system: NCI-H3122
Outline: as §1

[20] = test system: NCI-H1793
Outline: as §1

[21] = test system: NCI-H2087
Outline: as §1

[22] = test system: NCI-H1395
Outline: as §1

SMILES: COc1nc(C)cnc1NS(=O)(=O)c1cccnc1-c1ccc(-c2nnco2)cc1 [Zibotentan] + CC(=O)Nc1cccc(-n2c(=O)n(C3CC3)c(=O)c3c(Nc4ccc(I)cc4F)n(C)c(=O)c(C)c32)c1 [Trametinib] (partner 0.02 µM)
- relative viability ([1]; first compound 0.08 µM): 0.67
- relative viability ([1]; first compound 0.253 µM): 0.599
- relative viability ([1]; first compound 0.8 µM): 0.648
- relative viability ([1]; first compound 2.53 µM): 0.657
- relative viability ([2]; first compound 0.08 µM): 0.61
- relative viability ([2]; first compound 0.253 µM): 0.622
- relative viability ([2]; first compound 0.8 µM): 0.675
- relative viability ([2]; first compound 2.53 µM): 0.675
- relative viability ([3]; first compound 0.08 µM): 0.533
- relative viability ([3]; first compound 0.8 µM): 0.563
- relative viability ([3]; first compound 2.53 µM): 0.557
- relative viability ([4]; first compound 0.08 µM): 0.34
- relative viability ([4]; first compound 0.253 µM): 0.303
- relative viability ([4]; first compound 0.8 µM): 0.349
- relative viability ([4]; first compound 2.53 µM): 0.337
- relative viability ([5]; first compound 0.08 µM): 0.503
- relative viability ([5]; first compound 0.253 µM): 0.472
- relative viability ([5]; first compound 0.8 µM): 0.451
- relative viability ([5]; first compound 2.53 µM): 0.458
- relative viability ([6]; first compound 0.08 µM): 0.452
- relative viability ([6]; first compound 0.253 µM): 0.42
- relative viability ([6]; first compound 0.8 µM): 0.431
- relative viability ([6]; first compound 2.53 µM): 0.532
- relative viability ([7]; first compound 0.08 µM): 0.501
- relative viability ([7]; first compound 0.253 µM): 0.5
- relative viability ([7]; first compound 0.8 µM): 0.519
- relative viability ([7]; first compound 2.53 µM): 0.561
- relative viability ([8]; first compound 0.08 µM): 0.398
- relative viability ([8]; first compound 0.253 µM): 0.62
- relative viability ([8]; first compound 0.8 µM): 0.572
- relative viability ([8]; first compound 2.53 µM): 0.49
- relative viability ([9]; first compound 0.08 µM): 0.533
- relative viability ([9]; first compound 0.253 µM): 0.541
- relative viability ([9]; first compound 0.8 µM): 0.455
- relative viability ([9]; first compound 2.53 µM): 0.496
- relative viability ([10]; first compound 0.08 µM): 0.461
- relative viability ([10]; first compound 0.253 µM): 0.383
- relative viability ([10]; first compound 0.8 µM): 0.399
- relative viability ([10]; first compound 2.53 µM): 0.437
- relative viability ([11]; first compound 0.08 µM): 0.546
- relative viability ([11]; first compound 0.253 µM): 0.479
- relative viability ([11]; first compound 0.8 µM): 0.389
- relative viability ([11]; first compound 2.53 µM): 0.537
- relative viability ([12]; first compound 0.08 µM): 0.685
- relative viability ([12]; first compound 0.253 µM): 0.704
- relative viability ([12]; first compound 0.8 µM): 0.68
- relative viability ([12]; first compound 2.53 µM): 0.737
- relative viability ([13]; first compound 0.08 µM): 1.04
- relative viability ([13]; first compound 0.253 µM): 0.926
- relative viability ([13]; first compound 0.8 µM): 0.832
- relative viability ([13]; first compound 2.53 µM): 0.979
- relative viability ([14]; first compound 0.08 µM): 0.503
- relative viability ([14]; first compound 0.253 µM): 0.529
- relative viability ([14]; first compound 0.8 µM): 0.491
- relative viability ([14]; first compound 2.53 µM): 0.548
- relative viability ([15]; first compound 0.08 µM): 0.217
- relative viability ([15]; first compound 0.253 µM): 0.213
- relative viability ([15]; first compound 0.8 µM): 0.198
- relative viability ([15]; first compound 2.53 µM): 0.2
- relative viability ([16]; first compound 0.08 µM): 0.96
- relative viability ([16]; first compound 0.253 µM): 0.842
- relative viability ([16]; first compound 0.8 µM): 0.804
- relative viability ([16]; first compound 2.53 µM): 0.888
- relative viability ([17]; first compound 0.08 µM): 0.714
- relative viability ([17]; first compound 0.253 µM): 0.714
- relative viability ([17]; first compound 0.8 µM): 0.734
- relative viability ([17]; first compound 2.53 µM): 0.746
- relative viability ([18]; first compound 0.08 µM): 0.371
- relative viability ([18]; first compound 0.253 µM): 0.415
- relative viability ([18]; first compound 0.8 µM): 0.441
- relative viability ([18]; first compound 2.53 µM): 0.439
- relative viability ([19]; first compound 0.08 µM): 0.234
- relative viability ([19]; first compound 0.253 µM): 0.211
- relative viability ([19]; first compound 0.8 µM): 0.218
- relative viability ([19]; first compound 2.53 µM): 0.219
- relative viability ([20]; first compound 0.08 µM): 0.42
- relative viability ([20]; first compound 0.253 µM): 0.477
- relative viability ([20]; first compound 0.8 µM): 0.424
- relative viability ([20]; first compound 2.53 µM): 0.47
- relative viability ([21]; first compound 0.08 µM): 0.192
- relative viability ([21]; first compound 0.253 µM): 0.146
- relative viability ([21]; first compound 0.8 µM): 0.246
- relative viability ([21]; first compound 2.53 µM): 0.208
- relative viability ([22]; first compound 0.08 µM): 1.05
- relative viability ([22]; first compound 0.253 µM): 0.947
- relative viability ([22]; first compound 0.8 µM): 1.07
- relative viability ([22]; first compound 2.53 µM): 1.07
